Data on 35 compounds can be found in patent publication US12091411B2, “IRAK degraders and uses thereof” (Kymera Therapeutics, Inc., priority 2022, dated 2024).

The assay has as its target T1, IRAK4 (Homo sapiens, UniProt Q9NWZ3).
T1 construct: Degradation of IRAK4 in OCI-LY10 was quantitatively measured using Meso Scale Discovery technology; endogenous in cells; host or cells: OCI-LY10
T1 sequence (Q9NWZ3 1-460): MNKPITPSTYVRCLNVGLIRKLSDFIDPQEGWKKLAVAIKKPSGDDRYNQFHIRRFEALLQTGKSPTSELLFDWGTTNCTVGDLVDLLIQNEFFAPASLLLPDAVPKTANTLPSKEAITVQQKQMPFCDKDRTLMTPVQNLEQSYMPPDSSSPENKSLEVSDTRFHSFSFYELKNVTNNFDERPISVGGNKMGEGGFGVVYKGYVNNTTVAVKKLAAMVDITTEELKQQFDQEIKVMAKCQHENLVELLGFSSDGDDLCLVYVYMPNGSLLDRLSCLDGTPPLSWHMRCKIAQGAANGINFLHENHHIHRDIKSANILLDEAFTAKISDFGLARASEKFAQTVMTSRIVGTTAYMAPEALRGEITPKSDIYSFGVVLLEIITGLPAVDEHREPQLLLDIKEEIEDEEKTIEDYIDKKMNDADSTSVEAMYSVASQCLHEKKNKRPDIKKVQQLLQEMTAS
Description: IRAK4 MSD Degradation in OCI-LY10. The class given is cell-based. The conditions noted are these: OCI-LY10 cells, MSD. The method, boiled down: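 DC50, from a three-parameter logistic fit and reported as letter bins A (<0.01 μM), B, C, D (>0.2 μM or not tested), reflects IRAK4 loss measured by MSD electrochemiluminescence in OCI-LY10 lysates. Treatment: 8 doses, 1:3 steps, top 1 to 10 μM, 4 to 24 h, 37 °C.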

Where [1] appears, read: 4 hrs incubation, read-out: IRAK4 degradation in OCI-LY10 at 4 hrs: DC50.
[2] abbreviates: 24 hrs incubation, read-out: IRAK4 degradation in OCI-LY10 at 24 hrs: DC50.

Where two headings read alike, the source gives them in different places.

Broadly, the DC50 is the concentration at which degradation of the target reaches its halfway point.

Take `Cc1ccc(-c2nn([C@H]3CC[C@H](CN4CCN(CC#Cc5cccc6c5n(C)c(=O)n6C5CCC(=O)NC5=O)CC4)CC3)cc2NC(=O)c2cnn3cccnc23)nc1` (stereo partly drawn) [I-113]: the DC50 runs as follows: under setting [1], over 200 nM; under setting [2], under 10 nM.

With `Cc1ccc(-c2nn([C@H]3CC[C@H](CN4CCN(CC#Cc5cccc6c5n(C)c(=O)n6C5CCC(=O)NC5=O)CC4)CC3)cc2NC(=O)c2cnn3cccnc23)c(F)c1` (stereo partly drawn) [I-116], the half-maximal degradation concentration (DC50) under setting [1] was over 200 nM and the DC50 under setting [2] fell in the range of 10 to 100 nM.

Take `Cc1ccc(-c2nn([C@H]3CC[C@H](CN4CCN(CC#Cc5cccc6c5n(C)c(=O)n6C5CCC(=O)NC5=O)CC4)CC3)cc2NC(=O)c2cnn3cccnc23)cc1` (stereo partly drawn) [I-118]: the DC50 runs as follows: under setting [1], over 200 nM; under setting [2], 10 to 100 nM. Regarding `C[C@@H]1CN(CCCc2cccc3c2n(C)c(=O)n3C2CCC(=O)NC2=O)CCN1C[C@H]1CC[C@H](n2cc(NC(=O)c3cnn4ccc(N5C[C@H]6C[C@@H]5CO6)nc34)c(C(F)F)n2)CC1` (stereo partly drawn) [I-119], the DC50 under setting [1] is over 200 nM and the DC50 under setting [2] was over 200 nM. As to `C[C@H]1CN(CCCc2cccc3c2n(C)c(=O)n3C2CCC(=O)NC2=O)CCN1C[C@H]1CC[C@H](n2cc(NC(=O)c3cnn4ccc(N5C[C@H]6C[C@@H]5CO6)nc34)c(C(F)F)n2)CC1` (stereo partly drawn) [I-120], the 50% degradation concentration (DC50) was over 200 nM under setting [1] and over 200 nM under setting [2]. Consider `COc1nn([C@H]2CC[C@H](CN3CCN(CC#Cc4cccc5c4n(C)c(=O)n5C4CCC(=O)NC4=O)CC3)CC2)cc1NC(=O)c1cnn2ccc(N3C[C@H]4C[C@@H]3CO4)nc12` (stereo partly drawn) [I-121], for which the half-maximal degradation concentration (DC50) is, setting by setting: under setting [1], 100 to 200 nM; under setting [2], over 200 nM.

Consider `Cc1ccc(-c2nn([C@H]3CC[C@H](CN4CCN(CC#Cc5cccc6c5n(C)c(=O)n6C5CCC(=O)NC5=O)CC4)CC3)cc2NC(=O)c2cnn3cccnc23)nc1` (stereo partly drawn) [I-122], for which the DC50 is over 200 nM under setting [1] and 10 to 100 nM under setting [2]. In the case of `O=C1CCN(c2cccc(C#CCN3CCN(C[C@H]4CC[C@H](n5cc(NC(=O)c6cnn7ccc(N8C[C@H]9C[C@@H]8CO9)nc67)c(C(F)F)n5)CC4)CC3)c2)C(=O)N1` [I-123], the DC50 runs as follows: under setting [1], over 200 nM; under setting [2], over 200 nM. As for `O=C1CCN(c2ccc(C#CCN3CCN(C[C@H]4CC[C@@H](n5cc(NC(=O)c6cnn7ccc(N8C[C@@H]9C[C@H]8CO9)nc67)c(C(F)F)n5)CC4)CC3)cc2)C(=O)N1` [I-124], the DC50 by setting is: under setting [1], over 200 nM; under setting [2], over 200 nM. As for `O=C1CCC(c2cccc(C#CCN3CCN(C[C@H]4CC[C@@H](n5cc(NC(=O)c6cnn7ccc(N8C[C@@H]9C[C@H]8CO9)nc67)c(C(F)F)n5)CC4)CC3)c2)C(=O)N1` (stereo partly drawn) [I-125], the DC50 under setting [1] was over 200 nM and the half-maximal degradation concentration (DC50) under setting [2] is over 200 nM. Turning to `O=C1CCC(c2ccc(C#CCN3CCN(C[C@H]4CC[C@@H](n5cc(NC(=O)c6cnn7ccc(N8C[C@@H]9C[C@H]8CO9)nc67)c(C(F)F)n5)CC4)CC3)cc2)C(=O)N1` (stereo partly drawn) [I-126], the 50% degradation concentration (DC50) by setting is: under setting [1], over 200 nM; under setting [2], over 200 nM. Regarding `Cn1c(=O)n(C2CCC(=O)NC2=O)c2cccc(C#CCO[C@@H]3CCCN(C[C@H]4CC[C@H](n5cc(NC(=O)c6cnn7ccc(N8C[C@H]9C[C@@H]8CO9)nc67)c(C(F)F)n5)CC4)C3)c21` (stereo partly drawn) [I-127], the DC50 was 100 to 200 nM under setting [1] and over 200 nM under setting [2]. The like results for `Cn1c(=O)n(C2CCC(=O)NC2=O)c2cccc(C#CCO[C@H]3CCCN(C[C@H]4CC[C@H](n5cc(NC(=O)c6cnn7ccc(N8C[C@H]9C[C@@H]8CO9)nc67)c(C(F)F)n5)CC4)C3)c21` (stereo partly drawn) [I-128] were, in that order, 10 to 100 nM and over 200 nM. The like results for `CN1C(=O)C(C2CCC(=O)NC2=O)c2cccc(N3CCN(CC4CCC(n5cc6cc(NC(=O)c7cccc(C(F)(F)F)n7)c(S(C)(=N)=O)cc6n5)CC4)CC3)c21` (stereo not drawn) [I-129] were, in that order, under 10 nM and over 200 nM. The like results for `CC(C)(O)c1cc2nn([C@H]3CC[C@H](CN4CCC5(CC4)CC(CCNc4cccc6c4C(=O)N(C4CCC(=O)NC4=O)C6=O)C5)CC3)cc2cc1NC(=O)c1cccc(C(F)(F)F)n1` (stereo partly drawn) [I-130] were, in that order, over 200 nM and 10 to 100 nM. Turning to `COc1cc2nn([C@H]3CC[C@H](CN4CC(c5cccc6c5n(C)c(=O)n6C5CCC(=O)NC5=O)C4)CC3)cc2cc1NC(=O)c1nc(C(C)(C)F)ccc1OC` (stereo partly drawn) [I-131], the DC50 was over 200 nM under setting [1] and over 200 nM under setting [2].

In the case of `COc1cc2nn([C@H]3CC[C@H](CN4CC(c5c(OC)ccc6c5n(C)c(=O)n6C5CCC(=O)NC5=O)C4)CC3)cc2cc1NC(=O)c1cccc(C(C)(C)F)n1` (stereo partly drawn) [I-132], the DC50 by setting is: under setting [1], over 200 nM; under setting [2], over 200 nM.

As for `COc1cc2nn([C@H]3CC[C@H](CN4CC(c5cccc6c5n(C)c(=O)n6C5CCC(=O)NC5=O)C4)CC3)cc2cc1NC(=O)c1cncc(C(C)(C)F)n1` (stereo partly drawn) [I-134], the DC50 runs as follows: under setting [1], over 200 nM; under setting [2], over 200 nM. `COc1cc2nn([C@H]3CC[C@H](CN4CC(c5cncc6c5n(C)c(=O)n6C5CCC(=O)NC5=O)C4)CC3)cc2cc1NC(=O)c1cccc(C(C)(C)F)n1` (stereo partly drawn) [I-135]: the 50% degradation concentration (DC50) under setting [1] was over 200 nM and the DC50 under setting [2] was over 200 nM. As to `COc1cc2nn([C@H]3CC[C@H](CN4CC(c5cccc6c5n(C)c(=O)n6C5CCC(=O)NC5=O)C4)CC3)cc2cc1NC(=O)c1nc(C(C)(C)F)ccc1OC` (stereo partly drawn) [I-136], the DC50 under setting [1] was over 200 nM.

In the case of `COc1ccc(C(F)(F)F)nc1C(=O)Nc1cc2cn([C@H]3CC[C@@H](CN4CCC5(CC4)CC(CNc4cccc6c4C(=O)N(C4CCC(=O)NC4=O)C6=O)C5)CC3)nc2cc1C(C)(C)O` (stereo partly drawn) [I-137], the DC50 runs as follows: under setting [1], over 200 nM; under setting [2], 10 to 100 nM.

Take `COc1cc2nn([C@H]3CC[C@H](CN4CCC5(CC4)CC(Oc4cccc6c4C(=O)N(C4CCC(=O)NC4=O)C6=O)C5)CC3)cc2cc1NC(=O)c1cccc(C(F)(F)F)n1` (stereo partly drawn) [I-138]: the half-maximal degradation concentration (DC50) by setting is: under setting [1], over 200 nM; under setting [2], under 10 nM. With `CC(C)(O)c1cc2nn([C@H]3CC[C@H](CNCCCCCCCNc4cccc5c4C(=O)N(C4CCC(=O)NC4=O)C5=O)CC3)cc2cc1NC(=O)c1cccc(C(F)(F)F)n1` (stereo partly drawn) [I-139], the DC50 by setting is: under setting [1], over 200 nM; under setting [2], 10 to 100 nM. On to `COc1cc2nn([C@H]3CC[C@H](CN4CCC5(CC4)CC(Nc4cccc6c4C(=O)N(C4CCC(=O)NC4=O)C6=O)C5)CC3)cc2cc1NC(=O)c1ccccn1` (stereo partly drawn) [I-140], for which the DC50 reads like this: under setting [1], over 200 nM; under setting [2], 10 to 100 nM. `COc1cc2nn([C@H]3CC[C@H](CN4CCC5(CC4)CC(N(C)c4cccc6c4C(=O)N(C4CCC(=O)NC4=O)C6=O)C5)CC3)cc2cc1NC(=O)c1cccc(C(F)(F)F)n1` (stereo partly drawn) [I-141]: the 50% degradation concentration (DC50) is, setting by setting: under setting [1], over 200 nM; under setting [2], 10 to 100 nM. The corresponding values for `CC(C)(O)c1cc2nn(C3CCC(CNCCCCCNc4cccc5c4C(=O)N(C4CCC(=O)NC4=O)C5=O)CC3)cc2cc1NC(=O)c1cccc(C(F)(F)F)n1` (stereo not drawn) [I-142] are over 200 nM and under 10 nM. The like results for `CC(C)(O)c1cc2nn([C@H]3CC[C@H](CNCCCCCCNc4cccc5c4C(=O)N(C4CCC(=O)NC4=O)C5=O)CC3)cc2cc1NC(=O)c1cccc(C(F)(F)F)n1` (stereo partly drawn) [I-143] were, in that order, over 200 nM and under 10 nM. Regarding `CC(C)(O)c1cc2nn([C@H]3CC[C@H](CNCCNc4cccc5c4C(=O)N(C4CCC(=O)NC4=O)C5=O)CC3)cc2cc1NC(=O)c1cccc(C(F)(F)F)n1` (stereo partly drawn) [I-144], the DC50 by setting is: under setting [1], under 10 nM; under setting [2], under 10 nM.

As to `CN(CCCCNc1cccc2c1C(=O)N(C1CCC(=O)NC1=O)C2=O)C[C@H]1CC[C@H](n2cc3cc(NC(=O)c4cccc(C(F)(F)F)n4)c(C(C)(C)O)cc3n2)CC1` (stereo partly drawn) [I-145], the DC50 reads like this: under setting [1], under 10 nM; under setting [2], under 10 nM. Take `CC(C)(O)c1cc2nn([C@H]3CC[C@H](CNCCCNc4cccc5c4C(=O)N(C4CCC(=O)NC4=O)C5=O)CC3)cc2cc1NC(=O)c1cccc(C(F)(F)F)n1` (stereo partly drawn) [I-146]: the DC50 under setting [1] is over 200 nM and the DC50 under setting [2] lay within 10 to 100 nM. Regarding `COc1cc2nn([C@H]3CC[C@H](CN4CCC5(CC4)CCN(c4cccc6c4n(C)c(=O)n6C4CCC(=O)NC4=O)CC5)CC3)cc2cc1NC(=O)c1cncc(OC(F)(F)F)c1` (stereo partly drawn) [I-147], the DC50 is, setting by setting: under setting [1], 100 to 200 nM; under setting [2], over 200 nM. `COc1cc2nn([C@H]3CC[C@H](CN4CCC5(CC4)CCN(c4cccc6c4n(C)c(=O)n6C4CCC(=O)NC4=O)CC5)CC3)cc2cc1NC(=O)c1cncc(OC(F)F)c1` (stereo partly drawn) [I-148]: the 50% degradation concentration (DC50) runs as follows: under setting [1], 10 to 100 nM; under setting [2], over 200 nM. For `COc1cc2nn([C@H]3CC[C@H](CN4CCC5(CC4)CCN(c4cccc6c4n(C)c(=O)n6C4CCC(=O)NC4=O)CC5)CC3)cc2cc1NC(=O)c1cncc(SC)c1` (stereo partly drawn) [I-149], the half-maximal degradation concentration (DC50) was under 10 nM under setting [1] and over 200 nM under setting [2]. With `COc1cc2nn([C@H]3CC[C@H](CN4CCC5(CC4)CCN(c4cccc6c4n(C)c(=O)n6C4CCC(=O)NC4=O)CC5)CC3)cc2cc1NC(=O)c1cncc([S+](C)[O-])c1` (stereo partly drawn) [I-150], the DC50 is 10 to 100 nM under setting [1] and over 200 nM under setting [2]. As for `COc1cc2nn([C@H]3CC[C@H](CN4CCC5(CC4)CCN(c4cccc6c4n(C)c(=O)n6C4CCC(=O)NC4=O)CC5)CC3)cc2cc1NC(=O)c1cncc(S(C)(=O)=O)c1` (stereo partly drawn) [I-151], the half-maximal degradation concentration (DC50) is over 200 nM under setting [1] and over 200 nM under setting [2].
